Consider 1 molecule from paper PMC12959137 (Antimicrobial Agents and Chemotherapy, 2026).

In the experiment the target is KPC-2 (Klebsiella pneumoniae, UniProt Q9F663). Format: biochemical. Particulars: read-out: KM for nitrocefin hydrolysis (used in Morrison fit).
Chain of KPC-2 (Q9F663 25-293 limits assumed): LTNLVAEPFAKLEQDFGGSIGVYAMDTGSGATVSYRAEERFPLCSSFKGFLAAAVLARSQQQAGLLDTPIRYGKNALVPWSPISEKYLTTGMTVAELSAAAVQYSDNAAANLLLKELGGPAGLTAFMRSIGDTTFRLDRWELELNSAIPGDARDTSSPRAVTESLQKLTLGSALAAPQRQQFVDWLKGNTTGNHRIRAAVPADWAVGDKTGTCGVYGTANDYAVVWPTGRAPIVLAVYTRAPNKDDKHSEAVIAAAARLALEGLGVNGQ

Experimental: Initial velocities (v₀) were determined by fitting the reaction progress curves by linear regression. These velocities were then plotted against buffer concentrations and analyzed using the Morrison equation to determine the inhibition constant (Ki) ([33]). […] All data analysis and curve fitting were performed using GraphPad Prism (version 10.3.1).

For `O=C(Cc1cccs1)N[C@@H]1C(=O)N2C(C(=O)O)=C(/C=C/c3ccc([N+](=O)[O-])cc3[N+](=O)[O-])CS[C@H]12` [nitrocefin], the Km was 45 µM.

One may read the Km as the concentration of substrate that gives half-maximal velocity.
